How the values were obtained:
[1] = system: adult female filarial (Brugia malayi) worms; assay: Mortality and inhibition of motility of adult female filarial worms at 5 ppm (Example 2); assay type: cell-based; conditions: for time to 100% mortality: adult female worms
Description: (§1) A collection of 100 adult female Brugia malayi were obtained through an NIH subcontract from Dr. John McCall, University of Georgia in order to test the efficacy of anthraquinones as antifilarial agents. Three worms per well were transferred to 6 well plates containing fresh RPMI 1640 culture medium supplemented with L-glutamine and penicillin/streptomycin. […] Duplicate control groups received 2% DMSO or no DMSO. The medium was removed and replaced with fresh RPMI with or without drug in DMSO every 48 h. The movement and viability of the adult worms were monitored every 24 h till 10 days. The B. malayi worms in control wells were fully motile till the end of 10th day and the worms treated with anthraquinones were dead.
The anthraquinones A, B, D, E, F, J, Q and R, selected randomly, were assayed against adult female filarial (Brugia malayi) worms for mortality and inhibition of motility. […] Other anthraquinones tested gave 100% mortality between 3-10 days (Table 3)

[2] = system: female B. malayi adult worms; assay: Antifilarial activity against female adult worms at 5 ppm (Example 3); assay type: cell-based, Brugia malayi; conditions: monitored for 20 days
Procedure: (§2) Live adult male and female B. malayi were obtained from John McCall, University of Georgia, Athens, Ga. (NIH Subcontract). Adult worms were transferred to 6 well plates (3 worms, male or female per well) containing fresh RPMI 1640 culture medium supplemented with L-glutamine and penicillin/streptomycin. Anthraquinones were dissolved separately in 100% DMSO (4mg/ml) and diluted with RPMI media to obtain a final concentration of 5 ppm. Duplicate control groups received 2.5% DMSO or no DMSO. Every 48 h, the medium from each well was removed and replaced with fresh RPMI with or without drug in DMSO. The movement and mortality of the filarial were monitored every 24 h for 20 days. All B. malayi worms in control wells were fully motile throughout the study and the worms treated with anthraquinones were dead.

B. malayi Microfilaria = assay: Antifilarial activity against microfilaria at 5 ppm (Example 3); assay type: cell-based, Brugia malayi
B. Malayi adult worms = assay: Dose response of active anthraquinones against adult worms (50 to 3.12 ppm); assay type: cell-based, Brugia malayi
Description: as §1
Te assay was repeated with anthraquinones B, F, J and R since they killed the worms quickly compared to the other anthraquinones tested.

[3] = system: male B. malayi adult worms; assay: Antifilarial activity against male adult worms at 5 ppm (Example 3); assay type: cell-based, Brugia malayi; conditions: monitored for 20 days
Procedure: as §2

[4] = system: adult female and male B. malayi; assay: Morphology of H & E stained sections of killed adult worms (FIGS. 6-9); assay type: cell-based, Brugia malayi; conditions: killed by 5 ppm, H & E stain
Description: FIG. 6 is a cross-sectional view of H & E stained normal control adult female Brugia malayi. Normal duplicate intrauterine structures contains many well-formed microfilaria larvae that have not yet been released from the uterus. Magnification×400. Calibration mark indicates 100 microns in FIGS. 6-9).
FIG. 7 is a longitudinal sectional view of normal adult male B. malayi. […] Magnification×40.

[5] = system: human filarial parasite, B.malayi; assay: Activity of daylily anthraquinone against human filarial parasite; design: species or system Brugia malayi
Schistosoma mansoni = conditions: naturally occurring anthraquinone from daylily roots; Cichewicz et al. 2002; cited from earlier work

Compound | 100% Mortality of Microfilaria (Days)* (B. malayi Microfilaria) | 100% Mortality of B. Malayi ([1]; adult worms) [days] | 100% Mortality of female B. malayi [2] [days] | other results
COc1c(C)cc2c(c1O)C(=O)c1ccccc1C2=O [Anthraquinone O, 1-Hydroxy-2-methoxy-3-methyl anthraquinone] | No Mortality | – | – | 100% Mortality of B. malayi (Days) ([1]; adult worms): No activity; 100% Mortality of female B. malayi (Days) [2]: No Mortality
O=C1c2ccccc2C(=O)c2c1ccc(O)c2O [Anthraquinone A, 1,2-Dihydroxy anthraquinone] | 3 days | 11 | 5 | –
Cc1cc2c(c(O)c1O)C(=O)c1ccccc1C2=O [Anthraquinone B, 1,2-Dihydroxy-3-methyl anthraquinone] | 3 days | 5 | 5 | time to 100% mortality [1]: 24 h; 100% Mortality of B. Malayi (B. Malayi adult worms; 3.125 ppm): 6 days; 100% Mortality of B. Malayi (B. Malayi adult worms; 6.25 ppm): 5 days; 100% Mortality of B. Malayi (B. Malayi adult worms; 12.5 ppm): 4 days; 100% Mortality of B. Malayi (B. Malayi adult worms; 25 ppm): 3 days; 100% Mortality of B. Malayi (B. Malayi adult worms; 50 ppm): 1 days; 100% Mortality of male B. malayi [3]: 6 days; morphology of adult female B. malayi, cross-section [4]: disruption of the stable cuticle and hypodermal regions, along with disorganization of the intrauterine microfilariae; morphology of adult male B. malayi, longitudinal section [4]: marked loss of cellularity in hypodermal and deeper structures
CCCSc1ccc2nc(NC(=O)OC)[nH]c2c1 [Albendazole, reference compound] | No Mortality | 16 | 16 | 100% Mortality of male B. malayi [3]: 9 days
O=C1c2ccccc2C(=O)c2c(O)cc(O)cc21 [Anthraquinone D, 1,3-Dihydroxy anthraquinone] | No Mortality | – | – | 100% Mortality of B. malayi (Days) ([1]; adult worms): No activity; 100% Mortality of female B. malayi (Days) [2]: No Mortality
O=C1c2cc(O)c(O)c(O)c2C(=O)c2cccc(O)c21 [Anthraquinone N, 1,2,3,-5-Tetrahydroxy anthraquinone] | 3 days | 5 | 5 | 100% Mortality of male B. malayi [3]: 6 days
O=C1c2cc(O)c(O)cc2C(=O)c2c(O)cccc21 [Anthraquinone G, 2,3,5-Trihydroxy anthraquinone] | 3 days | 5 | 5 | –
Cc1c(O)c(O)cc2c1C(=O)c1ccccc1C2=O [Anthraquinone C, 1-Methyl-2,3-dihydroxy anthraquinone] | 3 days | 7 | 7 | –
COc1cccc2c1C(=O)c1c(cc(C)c(OC)c1O)C2=O [Anthraquinone R, 1-Hydroxy-2,8-dimethoxy-3-methyl anthraquinone] | No Mortality | 7 | 7 | time to 100% mortality [1]: 24 h; 100% Mortality of B. malayi (Days) (B. Malayi adult worms; 3.125 ppm): No Mortality; 100% Mortality of B. Malayi (B. Malayi adult worms; 6.25 ppm): 8 days; 100% Mortality of B. Malayi (B. Malayi adult worms; 12.5 ppm): 4 days; 100% Mortality of B. Malayi (B. Malayi adult worms; 25 ppm): 2 days; 100% Mortality of B. Malayi (B. Malayi adult worms; 50 ppm): 1 days
COc1c(C)cc2c(c1O)C(=O)c1c(O)cccc1C2=O [Anthraquinone Q, 1,8-Dihydroxy-2-methoxy-3-methyl anthraquinone] | No Mortality | – | – | 100% Mortality of B. malayi (Days) ([1]; adult worms): No activity; 100% Mortality of female B. malayi (Days) [2]: No Mortality
Cc1cc2c(c(O)c1O)C(=O)c1c(O)cccc1C2=O [Anthraquinone J, 1,2,8-Trihydroxy-3-methyl anthraquinone] | 3 days | 5 | 5 | time to 100% mortality [1]: 48 h; 100% Mortality of B. malayi (Days) (B. Malayi adult worms; 3.125 ppm): No Mortality; 100% Mortality of B. Malayi (B. Malayi adult worms; 6.25 ppm): 5 days; 100% Mortality of B. Malayi (B. Malayi adult worms; 12.5 ppm): 4 days; 100% Mortality of B. Malayi (B. Malayi adult worms; 25 ppm): 3 days; 100% Mortality of B. Malayi (B. Malayi adult worms; 50 ppm): 2 days; 100% Mortality of male B. malayi [3]: 5 days; activity against human filarial parasite B.malayi [5]: active; activity against Schistosoma mansoni (Schistosoma mansoni): significant activity
O=C1c2ccccc2C(=O)c2c(O)ccc(O)c21 [Anthraquinone E, 1,4-Dihydroxy anthraquinone] | No Mortality | 10 | 10 | –
Cc1c(O)c(O)cc2c1C(=O)c1c(O)cccc1C2=O [Anthraquinone K, 1-Methyl-2,3,8-trihydroxy anthraquinone] | 1 days | 3 | 3 | 100% Mortality of male B. malayi [3]: 5 days
COc1c(C)cc2c(c1OC)C(=O)c1ccccc1C2=O [Anthraquinone P, 1,2-Dimethoxy-3-methyl anthraquinone] | No Morality | 11 | 11 | –
O=C1c2ccc(O)c(O)c2C(=O)c2cccc(O)c21 [Anthraquinone H, 1,2,5-Trihydroxy anthraquinone] | 3 days | 9 | 9 | –
COc1cc2c(c(C)c1OC)C(=O)c1c(O)cccc1C2=O [Anthraquinone S, 1-Methyl-2,3-dimethoxy-8-hydroxy anthraquinone] | No Mortality | 9 | 9 | activity ([1]; adult worms, at 9 days): 50%
O=C1c2cccc(O)c2C(=O)c2c(O)ccc(O)c21 [Anthraquinone M, 1,4,8-Trihydroxy anthraquinone] | 5 days | 9 | 9 | –
O=C1c2cc(O)cc(O)c2C(=O)c2cccc(O)c21 [Anthraquinone L, 1,3,5-Trihydroxy anthraquinone] | 3 days | 7 | 7 | –
O=C1c2cccc(O)c2C(=O)c2c1ccc(O)c2O [Anthraquinone I, 1,2,8-Trihydroxy anthraquinone] | 3 days | 14 | 14 | –
O=C1c2ccccc2C(=O)c2c1cc(O)c(O)c2O [Anthraquinone F, 1,2,3-Trihydroxy anthraquinone] | 3 days | 5 | 5 | 100% Mortality of B. Malayi (B. Malayi adult worms; 3.125 ppm): 5 days; 100% Mortality of B. Malayi (B. Malayi adult worms; 6.25 ppm): 5 days; 100% Mortality of B. Malayi (B. Malayi adult worms; 12.5 ppm): 4 days; 100% Mortality of B. Malayi (B. Malayi adult worms; 25 ppm): 4 days; 100% Mortality of B. Malayi (B. Malayi adult worms; 50 ppm): 2 days
